Reference: US20090093493A1, “1-PHENYLALCOXY-2-BETA-PHENYLETHYL DERIVATIVES AS P-GLYCOPROTEIN (P-GP) INHIBITORS USEFUL IN DRUG RESISTANCE EVENTS” (priority 2007, published 2009)
Where two headings read alike, the source gives them in different places.

How the values were obtained:
[1] = target: T1, P-glycoprotein (Homo sapiens, UniProt P08183); experiment: Doxorubicin accumulation in MCF7/Adr cells after pretreatment with compound (flow cytometry); conditions: for endocellular accumulation: above-described assays
T1 sequence (P08183 whole entry): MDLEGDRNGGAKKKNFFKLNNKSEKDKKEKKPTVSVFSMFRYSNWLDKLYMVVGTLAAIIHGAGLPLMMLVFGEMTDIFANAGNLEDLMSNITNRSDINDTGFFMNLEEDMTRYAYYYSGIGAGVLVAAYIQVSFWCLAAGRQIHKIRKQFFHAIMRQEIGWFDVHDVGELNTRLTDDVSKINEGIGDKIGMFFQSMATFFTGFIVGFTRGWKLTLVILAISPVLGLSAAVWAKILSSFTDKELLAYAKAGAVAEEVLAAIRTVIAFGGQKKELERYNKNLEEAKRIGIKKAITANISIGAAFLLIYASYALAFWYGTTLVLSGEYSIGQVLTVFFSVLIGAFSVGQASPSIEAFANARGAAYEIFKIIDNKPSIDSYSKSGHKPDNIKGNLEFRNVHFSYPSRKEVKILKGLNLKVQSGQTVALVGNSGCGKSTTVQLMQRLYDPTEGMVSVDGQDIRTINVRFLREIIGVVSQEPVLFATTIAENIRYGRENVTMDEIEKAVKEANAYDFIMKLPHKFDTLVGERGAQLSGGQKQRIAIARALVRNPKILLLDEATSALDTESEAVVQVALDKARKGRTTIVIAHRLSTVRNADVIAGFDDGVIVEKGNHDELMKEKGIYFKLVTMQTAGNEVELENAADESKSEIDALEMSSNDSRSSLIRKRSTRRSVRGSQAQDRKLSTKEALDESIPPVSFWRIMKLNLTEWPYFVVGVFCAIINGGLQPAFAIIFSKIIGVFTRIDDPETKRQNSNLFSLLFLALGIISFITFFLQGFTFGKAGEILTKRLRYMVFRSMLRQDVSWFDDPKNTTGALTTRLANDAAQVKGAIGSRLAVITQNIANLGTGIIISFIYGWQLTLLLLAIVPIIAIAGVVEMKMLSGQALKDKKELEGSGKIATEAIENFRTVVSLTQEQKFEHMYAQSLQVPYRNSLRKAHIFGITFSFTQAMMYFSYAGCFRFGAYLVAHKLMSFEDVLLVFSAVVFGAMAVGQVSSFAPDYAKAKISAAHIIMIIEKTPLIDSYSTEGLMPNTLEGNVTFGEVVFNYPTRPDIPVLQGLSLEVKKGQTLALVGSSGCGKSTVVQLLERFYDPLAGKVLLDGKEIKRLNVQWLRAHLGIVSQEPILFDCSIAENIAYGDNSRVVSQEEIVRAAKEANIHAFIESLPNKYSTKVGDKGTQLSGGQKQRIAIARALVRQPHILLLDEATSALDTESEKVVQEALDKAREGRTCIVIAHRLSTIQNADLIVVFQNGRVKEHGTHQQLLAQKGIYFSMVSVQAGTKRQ
Experimental: (§1) Another assay is performed on MCF-7/ADr cells. These cells, resistant to the chemotherapy agent doxorubicin, are exposed for some hours to the compound under examination and subsequently treated with doxorubicin. The amount of doxorubicin entering the cell following treatment with the compounds under examination is then measured.
(§2) At the end of the incubation, the incubation medium containing the compound under examination was removed, and fresh medium containing 50 μM doxorubicin was added for 24 h. The negative control consisted of plates containing an alike number of cells untreated with the compound. At the end of the 24 h, the medium was removed and the cells split and prepared according to standard procedure for flow cytometry analysis.

[2] = target: T2, P-gp (Homo sapiens, UniProt P08183); conditions: reported in literature; cited from earlier work
T2 sequence (P08183 whole entry): as above

[3] = target: T2, P-gp; experiment: Classification of compounds interfering with P-gp activity (method of Polli et al. / Taub et al.); type: cell-based; parameters: apparent permeability determined in Caco-2 cells; endogenous in cells; host or cells: Caco-2; conditions: above-described assays
Text: The biological assays performed verify a) transport for each for each candidate compound by P-gp (apparent permeability determined in Caco-2 cells); b) ATP-ase activation in Caco-2 cells; c) inhibition of [^3H] Vinblastine basolateral-apical transport (in Caco-2 cells) and of rhodamine (in guinea pig ileum).

[4] = target: T1, P-glycoprotein
Experimental: as §1, §2

[5] = MCF7/Adr, 20 μM compound for 120 min, then 50 μM doxorubicin for 24 h

Compound | inletting of doxorubicin in the cells [1, 5] | endocellular accumulation [1] | also measured
COc1cccc(CCc2ccccc2OCc2cccc(OC)c2)c1 [EB27, 1-[(3-methoxybenzyl)oxy]-2-[2-(3-methoxyphenyl)ethyl]benzene] | increase | very high | 
COc1cc2c(cc1OC)CN(CCc1ccc(NC(=O)c3cccc4c(=O)c5cccc(OC)c5[nH]c34)cc1)CC2 [GF120918] |  |  | classification as pure inhibitor of P-gp [2]: sole pure inhibitor of P-gp
c1ccc(CCc2ccccc2OCc2ccccc2)cc1 [EB 30, 1-(benzyloxy)-2-(2-phenylethyl)benzene] |  |  | Category of interference with P-gp activity [3]: IIB
COc1cccc(CCc2ccccc2OCCCN2CCN(c3ncccn3)CC2)c1 [EB25, 3-{2-[2-(3-methoxyphenyl)ethyl]phenoxy}propan-1-[4-(2-pyrimidyl)piperazine]] |  |  | endocellular accumulation [4]: very high
COc1cccc(CCc2ccccc2OCc2ccccn2)c1 [EB12, 2({2-[2-(3-methoxyphenyl)ethyl]phenoxy}methyl]pyridine] | increase | very high | effectiveness in P-glycoprotein inhibition relative to Verapamil and EB27 [1, 5]: 5 fold
